In DBAASP:
Converted amounts (≈) assume the structure as drawn. “And” between values parts separate entries of the source, which are not always exact repeats. Identical values can stand only once. One block for each molecule: values may come before it.

What was measured:
Experiment in all cases: ≥ marks a high value that may be exact or a test limit, other limits are often not marked, values filed in µg/mL are converted to µM
[1] = system: Staphylococcus epidermidis PCM 521
[2] = system: Staphylococcus aureus PCM 2054
[3] = system: Escherichia coli PCM 2057
Candida krusei CCM 8271 = system: Candida krusei CCM 8271
[4] = system: Candida albicans F7-39/IDE99
Escherichia coli B = system: Escherichia coli B
[5] = system: Staphylococcus aureus PMC 1650
[6] = system: Candida glabrata CCM 8270
Bacillus subtilis 168 = system: Bacillus subtilis 168
[7] = system: Candida parapsilosis CCM 8260
[8] = system: Staphylococcus epidermidis PCM 2118
Staphylococcus aureus = system: Staphylococcus aureus
Pseudomonas aeruginosa = system: Pseudomonas aeruginosa
[9] = system: Escherichia coli ESBL 63103
[10] = system: Pseudomonas aeruginosa H103
[11] = system: Pseudomonas aeruginosa LES400
Candida albicans C627 = system: Candida albicans C627
[12] = system: Pseudomonas aeruginosa 213
[13] = system: Enterococcus faecium mic80
[14] = system: Staphylococcus aureus C623
[15] = system: Staphylococcus aureus ATCC 25923
Escherichia coli AS1.349 = system: Escherichia coli AS1.349
Bacillus cereus AS1.126 = system: Bacillus cereus AS1.126
[16] = system: Lactococcus lactis AS1.1690
[17] = system: Staphylococcus aureus AS1.72
[18] = system: Pseudomonas aeruginosa CGMCC 1.860
[19] = system: Enterococcus faecium CGMCC 1.2334
[20] = system: Enterococcus faecalis CGMCC 1.595
[21] = system: Salmonella enterica subsp. enterica serovar Enteritidis
[22] = system: Candida albicans ATCC 2002
[23] = system: Staphylococcus aureus ATCC 29213
[24] = system: Pseudomonas aeruginosa CMCCB 10104
[25] = system: Escherichia coli ATCC 25922
[26] = system: Pseudomonas aeruginosa ATCC 9027
Listeria innocua = system: Listeria innocua
[27] = system: Staphylococcus aureus USA 300
[28] = system: Staphylococcus aureus USA 100
Escherichia coli = system: Escherichia coli
[29] = system: Candida albicans ATCC 90028
Micrococcus luteus = system: Micrococcus luteus
Candida albicans = system: Candida albicans
Bacillus cereus = system: Bacillus cereus
Lactococcus lactis = system: Lactococcus lactis
[30] = system: Acinetobacter calcoaceticus
Bacillus pumilus = system: Bacillus pumilus
Shigella dysenteriae = system: Shigella dysenteriae
[31] = system: Staphylococcus aureus ATCC 2592

MIC [1]: 7.25 µM (≈ 12.5 µg/mL) | MIC [2]: 29 µM (≈ 50 µg/mL) | MIC [3]: 7.25 µM (≈ 12.5 µg/mL) | MIC (Candida krusei CCM 8271): 29 µM (≈ 50 µg/mL) | MIC [4]: 9.1 µM (≈ 15.7 µg/mL) | MIC (Escherichia coli B): 1.7 µM (≈ 2.93 µg/mL) | MIC [5]: 14.5 µM (≈ 25 µg/mL) | MIC [6]: 29 µM (≈ 50 µg/mL) | MIC (Bacillus subtilis 168): 0.8 µM (≈ 1.38 µg/mL) | MIC [7]: 29 µM (≈ 50 µg/mL) | MIC [8]: 3.62 µM (≈ 6.25 µg/mL) | MIC (Staphylococcus aureus): 14.3 µM (≈ 24.6 µg/mL) | MIC (Pseudomonas aeruginosa): 15.8 µM (≈ 27.2 µg/mL)
Compound: CC[C@H](C)[C@H](NC(=O)[C@H](CCCCN)NC(=O)CNC(=O)[C@H](CC(C)C)NC(=O)[C@@H](NC(=O)[C@H](CCCCN)NC(=O)[C@H](CCCCN)NC(=O)[C@H](Cc1c[nH]c2ccccc12)NC(=O)[C@H](CC(N)=O)NC(=O)[C@@H](N)C(C)C)C(C)C)C(=O)N[C@H](C(=O)N[C@@H](CCCCN)C(=O)N[C@H](C(=O)N[C@@H](C)C(=O)N[C@@H](CCCCN)C(N)=O)C(C)C)[C@@H](C)CC [VNWKKVLGKIIKVAK]

MIC [9]: ≥ 46.7 µM | MIC [10]: ≥ 46.7 µM | MIC [11]: ≥ 93.3 µM | MIC (Candida albicans C627): 5.83 µM (≈ 8 µg/mL) | MIC [12]: ≥ 93.3 µM | MIC [13]: 23.3 µM (≈ 32 µg/mL) | MIC [14]: ≥ 46.7 µM | MIC [15]: 93.3 µM (≈ 128 µg/mL)
Compound: CC[C@H](C)[C@H](NC(=O)[C@H](CCCCN)NC(=O)[C@H](Cc1c[nH]c2ccccc12)NC(=O)[C@@H](NC(=O)[C@@H](N)CCCN=C(N)N)[C@@H](C)CC)C(=O)N[C@@H](Cc1c[nH]c2ccccc12)C(=O)N[C@@H](Cc1c[nH]c2ccccc12)C(=O)N[C@@H](CCCCN)C(=O)N[C@@H](CCCN=C(N)N)C(=O)O [RIWKIWWKR]

MIC (Candida albicans): 6.25 µM (≈ 9.02 µg/mL) | MIC (Bacillus cereus): 3.13 µM (≈ 4.52 µg/mL) | MIC (Escherichia coli AS1.349): 12.5 µM (≈ 18 µg/mL) | MIC [17]: 3.13 µM (≈ 4.52 µg/mL) | MIC (Lactococcus lactis): 3.13 µM (≈ 4.52 µg/mL) | MIC (Pseudomonas aeruginosa): 12.5 µM (≈ 18 µg/mL)
Compound: CC(C)C[C@H](NC(=O)[C@H](CC(C)C)NC(=O)CNC(=O)[C@H](Cc1ccccc1)NC(=O)[C@H](CCCN=C(N)N)NC(=O)[C@H](CC(C)C)NC(=O)[C@H](CCCCN)NC(=O)[C@H](CCCCN)NC(=O)[C@H](CC(C)C)NC(=O)[C@@H]1CCCN1C(=O)[C@H](CC(C)C)NC(=O)[C@@H](N)Cc1ccccc1)C(N)=O [FLPLKKLRFGLL]

MIC [30]: 18.1 µM (≈ 30 µg/mL) | MIC (Bacillus cereus): 18.1 µM (≈ 30 µg/mL) | MIC (Bacillus pumilus): 3.01 µM (≈ 5 µg/mL) | MIC [22]: 1.51 µM (≈ 2.5 µg/mL) | MIC (Shigella dysenteriae): 3.01 µM (≈ 5 µg/mL) | MIC [31]: 1.51 µM (≈ 2.5 µg/mL) | MIC (Pseudomonas aeruginosa): 3.01 µM (≈ 5 µg/mL) | MIC [25]: 1.51 µM (≈ 2.5 µg/mL)
Compound: CC[C@H](C)[C@H](NC(=O)[C@@H]1CCCN1C(=O)[C@H](Cc1ccccc1)NC(=O)[C@@H](N)Cc1ccccc1)C(=O)N[C@H](C(=O)NCC(=O)N[C@@H](CCCCN)C(=O)N[C@@H](CC(C)C)C(=O)N[C@@H](CC(C)C)C(=O)N[C@@H](CO)C(=O)NCC(=O)N[C@@H](CC(C)C)C(=O)N[C@@H](CO)C(=O)NCC(=O)N[C@@H](CC(C)C)C(=O)N[C@@H](CC(C)C)C(N)=O)C(C)C [FFPIVGKLLSGLSGLL]

Further lines, the molecule ahead of its results:

Compound: CC(C)[C@H](N)C(=O)N[C@@H](Cc1c[nH]c2ccccc12)C(=O)N[C@@H](CCCN=C(N)N)C(=O)N[C@@H](CCCCN)C(=O)N[C@@H](Cc1c[nH]c2ccccc12)C(=O)N[C@@H](CCCN=C(N)N)C(=O)N[C@@H](CCCN=C(N)N)C(=O)N[C@@H](Cc1ccccc1)C(=O)N[C@@H](Cc1c[nH]c2ccccc12)C(=O)N[C@@H](CCCCN)C(=O)N[C@@H](CCCN=C(N)N)C(=O)O [VWRKWRRFWKR]
MIC (Escherichia coli AS1.349): 3.13 µM (≈ 5.33 µg/mL) | MIC (Bacillus cereus AS1.126): 3.13 µM (≈ 5.33 µg/mL) | MIC [16]: 6.25 µM (≈ 10.7 µg/mL) | MIC [17]: 6.25 µM (≈ 10.7 µg/mL) | MIC [18]: 1.56 µM (≈ 2.66 µg/mL) | MIC [19]: 6.25 µM (≈ 10.7 µg/mL) | MIC [20]: 6.25 µM (≈ 10.7 µg/mL)

Compound: CC[C@H](C)[C@H](NC(=O)[C@H](CCCCN)NC(=O)[C@H](CCCCN)NC(=O)CNC(=O)[C@@H](NC(=O)CNC(=O)[C@H](CC(C)C)NC(=O)[C@@H](NC(=O)CNC(=O)[C@H](CO)NC(=O)[C@H](CC(C)C)NC(=O)[C@H](CC(C)C)NC(=O)CN)C(C)C)C(C)C)C(=O)N[C@H](C(=O)N[C@H]1CSSC[C@@H](C(=O)O)NC(=O)[C@H](CC(C)C)NC(=O)CNC(=O)[C@H](CO)NC(=O)[C@H](CC(C)C)NC(=O)CNC1=O)C(C)C [GLLSGVLGVGKKIVCGLSGLC]
MIC [21]: ≥ 64.9 µM | MIC [22]: 2.63 µM (≈ 5.19 µg/mL) | MIC [23]: 11.5 µM (≈ 22.6 µg/mL) | MIC [15]: 5.27 µM (≈ 10.4 µg/mL) | MIC [24]: 5.27 µM (≈ 10.4 µg/mL) | MIC [25]: 2.63 µM and 5.73 µM

Compound: NCCCCC(N)C(=O)NC(Cc1ccc(O)cc1)C(=O)NC(CCCN=C(N)N)C(=O)O (stereo not given) [KYR]
MIC [26]: > 100 µM | MIC (Listeria innocua): 1 µM (≈ 0.466 µg/mL) | MIC [21]: 1 µM (≈ 0.466 µg/mL) | MIC [27]: ≥ 100 µM | MIC [28]: ≥ 100 µM | MIC (Escherichia coli): 1 µM (≈ 0.466 µg/mL) | MIC [29]: ≥ 100 µM | MIC (Micrococcus luteus): 2 µM (≈ 0.931 µg/mL) | MIC (Staphylococcus aureus): 1 µM (≈ 0.466 µg/mL)

Compound: CC[C@H](C)[C@H](NC(=O)CN)C(=O)N[C@@H](Cc1ccccc1)C(=O)N[C@@H](CO)C(=O)N[C@@H](CC(C)C)C(=O)N[C@H](C(=O)N[C@@H](CCCCN)C(=O)N[C@H](C(=O)N[C@@H](C)C(=O)N[C@@H](C)C(=O)N[C@@H](CCCCN)C(=O)N[C@@H](Cc1ccccc1)C(=O)N[C@H](C(=O)NCC(=O)N[C@@H](CCCCN)C(=O)N[C@@H](CC(N)=O)C(=O)N[C@@H](CC(C)C)C(=O)N[C@@H](CC(C)C)C(=O)N[C@@H](CCCCN)C(=O)N[C@@H](CCC(N)=O)C(=O)N[C@@H](C)C(=O)NCC(=O)N[C@@H](CCCCN)C(=O)N[C@@H](C)C(=O)NCC(=O)N[C@H](C(=O)N[C@@H](CCC(=O)O)C(=O)N[C@@H](Cc1cnc[nH]1)C(=O)N[C@@H](CC(C)C)C(=O)N[C@@H](C)C(=O)N[C@H]1CSSC[C@@H](C(=O)O)NC(=O)[C@H](CCC(N)=O)NC(=O)[C@H](CC(N)=O)NC(=O)[C@H](CC(N)=O)NC(=O)[C@H](C)NC(=O)[C@H](CCCCN)NC1=O)C(C)C)C(C)C)[C@@H](C)O)[C@@H](C)CC [GIFSLIKTAAKFVGKNLLKQAGKAGVEHLACKANNQC]
MIC [30]: 3.23 µM (≈ 12.5 µg/mL) | MIC (Bacillus cereus): 1.94 µM (≈ 7.5 µg/mL) | MIC (Bacillus pumilus): 0.646 µM (≈ 2.5 µg/mL) | MIC [22]: 0.646 µM (≈ 2.5 µg/mL) | MIC (Shigella dysenteriae): 1.94 µM (≈ 7.5 µg/mL) | MIC [31]: 0.323 µM (≈ 1.25 µg/mL) | MIC (Pseudomonas aeruginosa): 12.9 µM (≈ 50 µg/mL) | MIC [25]: 3.23 µM (≈ 12.5 µg/mL)
